# Measured values as given in patent US20240368185A1, “MACROCYCLIC AZOLOPYRIDINES” (Fulcrum Therapeutics, Inc., priority 2021, published 2024).
# How the values were obtained:
# [1] = Dynamic vapor sorption (DVS) analysis; assay type: physicochemical; conditions: between about 2 to about 92% relative humidity (RH) at 25° C.
# Protocol: Dynamic vapor sorption (DVS) analysis was performed using a DVS Intrinsic 1. The sample (25 mg) was loaded into a sample pan, suspended from a microbalance and exposed to a humidified stream of nitrogen gas. The sample was held for a minimum of 5 min at each level and only progressed to the next humidity level if there was <0.002% change in weight between measurements (interval: 60 seconds) or 240 min had elapsed.
# physchem [2] = assay type: physicochemical; conditions: organic solvent or mixture, thermodynamic from solid
# Protocol: Crystalline, Form V material of (S)-12-fluoro-4-(2-methylpyridin-3-yl)-7a,8,13,14-tetrahydro-7H-[1,2,4]triazolo[4′,3′:1,6]pyrido[3,2-b]benzofuro[4,3-fg][1,4]oxazonine, free base, was prepared as follows. About 12 mg of Form P material was loaded into a 2 mL vial. […] The solution was stirred overnight and the next day a slurry was observed. The slurry solids were collected and analyzed by XRPD.
# [3] = Wet-milling study (ball mill, 30 s, 1 vol. water); assay type: physicochemical; conditions: milled with 1 vol. water
# [4] = Particle size distribution (PSD); assay type: physicochemical
# Protocol: Several other Experiments (Experiment 2, Experiment 3, Experiment 4, Experiment 5, Experiment 7, and Experiment 8) were performed to study the effect of seed loading, seed size and scale on particle size of final product.
# The material as received was characterized by X-Ray Powder Diffraction (XRPD), Polarized Light Microscopy (PLM), Particle Size Distribution (PSD), Thermo-Gravimetric Analysis (TGA) and Differential Scanning Calorimetry (DSC).
# In the second batch, crystals with rod morphology and a length of greater than 200 μm were observed. Two final scaled up batches were performed. A 43 gram batch was produced as small seeds and a 22 gram batch was produced using the first 10 gram batch (Crystallization 1) as large seeds to assess the impact of different size seeds on the process. Scanning electron microscopy (SEM) was used to compliment the polarized light microscope (PLM) and particle size distribution (PSD) measurements.
# [5] = 24 h
# Protocol: (§1) An abbreviated polymorph/solvate screen and approximate solubility determination were performed utilizing each class III solvent and several class II solvents as listed under ICH Guidelines Q3C. […] Form P was chosen as the target polymorph for crystallization.
# physchem [6] = conditions: 70 °C, organic solvent or mixture, thermodynamic from solid
# Protocol: as §1
# physchem [7] = conditions: organic solvent or mixture, thermodynamic from solid
# Protocol: as §1
# [8] = Salt screening: XRPD form after exposure to 95%+ relative humidity for one day; assay type: physicochemical; design: key: Am = amorphous; conditions: solid dried under vacuum at 50° C., then 95%+ relative humidity for one day
# Protocol: A stock solution of Form P material of (S)-12-fluoro-4-(2-methylpyridin-3-yl)-7a,8,13,14-tetrahydro-7H-[1,2,4]triazolo[4′,3′:1,6]pyrido[3,2-b]benzofuro[4,3-fg][1,4]oxazonine, free base, was prepared in 2,2,2-trifluoroethanol (50.8 mg/mL). Stock solutions of counter ion were prepared in EtOH.
# Salt formation was carried out at room temperature in 2 mL vials. 25.4 mg of Form P free base material (500 μL stock solution) and 1.1 equivalents of counter ion were added to each vial. Solvent was allowed to evaporate at 40° C. overnight with stirring. […] These vials were kept on the hotplate to continue evaporating (temperature increased to 50° C.), while the more-dry samples were dried further under vacuum for 3 hours at 50° C. The samples still containing solvent at the end of the day were left to stir at 30° C. over the weekend to finish evaporating the solvent. These samples were dried further under vacuum for 3 hours at 50° C.
# Approximately 20 volumes of solvent (0.5 mL) was added to each vial containing the dried solids. The three solvents selected were EtOH, EtOAc, and IPA:water (9:1 vol). Once solvents were added, the mixtures (or solutions) were stirred at room temperature. When slurries were formed, the solids were filtered for XRPD analysis.
# XRPD analysis was done in three stages. XRPD of the wet cake was done for all collected samples. […]
# [9] = assay type: physicochemical
# Protocol: Crystalline, Form W material of (S)-12-fluoro-4-(2-methylpyridin-3-yl)-7a,8,13,14-tetrahydro-7H-[1,2,4]triazolo[4′,3′:1,6]pyrido[3,2-b]benzofuro[4,3-fg][1,4]oxazonine, free base, was prepared as follows. About 2.5 mg of (S)-12-fluoro-4-(2-methylpyridin-3-yl)-7a,8,13,14-tetrahydro-7H-[1,2,4]triazolo[4′,3′:1,6]pyrido[3,2-b]benzofuro[4,3-fg][1,4]oxazonine, maleic acid salt (Form 7-A), was loaded into a vial. 1 mL of water was added, and the mixture was warmed to 37° C. Additional water was added to the slurry, which thinned considerably and then appeared to start precipitating a fine white solid. This was viewed as likely disproportionation and additional water was not added. The mixture was stirred overnight, and the following day the fine solid suspended in the solution was collected and analyzed by XRPD. It was observed that the maleic acid salt had disproportionated over the slurry time.
# [10] = Crystallization 1, 10 gram scale, milled Form P as seeds
# [11] = Crystallization 2, 10 gram scale, crystals from Crystallization 1 as seeds
# [12] = Experiment 1, initial process, 0.5 w/w % seed
# [13] = Experiment 2, effect of seed loading, 0.5 w/w % milled seed
# [14] = Experiment 3, effect of seed loading, 3.0 w/w % milled seed
# [15] = Experiment 4, effect of seed size, 1.0 w/w % large seed
# [16] = Experiment 5, effect of seed size, 1.0 w/w % milled seed
# [17] = Experiment 6, wet milling study, after milling
# [18] = Experiment 6, wet milling study, before milling
# [19] = Experiment 7, effect of scale, 3 g scale
# [20] = Experiment 8, effect of scale, 10 g scale
molecule,measurement,setting,value
"Cc1ncccc1-c1cc2c(n3cnnc13)NCc1c(F)ccc3c1C(CO3)CO2 (stereo in doubt) [Form E, (S)-12-fluoro-4-(2-methylpyridin-3-yl)-7a,8,13,14-tetrahydro-7H-[1,2,4]triazolo[4′,3′:1,6]pyrido[3,2-b]benzofuro[4,3-fg][1,4]oxazonine]",DVS reversable total mass change,[1],about 10.3 wt. %
"Cc1ncccc1-c1cc2c(n3cnnc13)NCc1c(F)ccc3c1C(CO3)CO2 (stereo in doubt) [Form H, (S)-12-fluoro-4-(2-methylpyridin-3-yl)-7a,8,13,14-tetrahydro-7H-[1,2,4]triazolo[4′,3′:1,6]pyrido[3,2-b]benzofuro[4,3-fg][1,4]oxazonine]",DVS reversable total mass change,[1],about 7.6 wt. %
"Cc1ncccc1-c1cc2c(n3cnnc13)NCc1c(F)ccc3c1C(CO3)CO2 (stereo in doubt) [Form P, (S)-12-fluoro-4-(2-methylpyridin-3-yl)-7a,8,13,14-tetrahydro-7H-[1,2,4]triazolo[4′,3′:1,6]pyrido[3,2-b]benzofuro[4,3-fg][1,4]oxazonine]",solubility,physchem [2],167 to 333 mg/mL
same,DVS reversable total mass change,[1],about 0.53 wt. %
same,crystallinity and solid form purity after wet milling,[3],maintained crystallinity and solid form purity
same,Particle Size Distribution D(10),[4]; [10],37.2 µm
same,Particle Size Distribution D(50),[4]; [10],115 µm
same,Particle Size Distribution D(90),[4]; [10],196 µm
same,Particle Size Distribution D(10),[4]; [11],23.4 µm
same,Particle Size Distribution D(50),[4]; [11],126 µm
same,Particle Size Distribution D(90),[4]; [11],634 µm
same,Particle Size Distribution (PSD) D10,[4]; [12],19 μm
same,Particle Size Distribution (PSD) D50,[4]; [12],100 μm
same,Particle Size Distribution (PSD) D90,[4]; [12],213 μm
same,Particle Size Distribution (PSD) D10,[4]; [13],17 μm
same,Particle Size Distribution (PSD) D50,[4]; [13],93 μm
same,Particle Size Distribution (PSD) D90,[4]; [13],187 μm
same,Particle Size Distribution (PSD) D10,[4]; [14],7 μm
same,Particle Size Distribution (PSD) D50,[4]; [14],31 μm
same,Particle Size Distribution (PSD) D90,[4]; [14],83 μm
same,Particle Size Distribution (PSD) D10,[4]; [15],28 μm
same,Particle Size Distribution (PSD) D50,[4]; [15],90 μm
same,Particle Size Distribution (PSD) D90,[4]; [15],171 μm
same,Particle Size Distribution (PSD) D10,[4]; [16],15 μm
same,Particle Size Distribution (PSD) D50,[4]; [16],82 μm
same,Particle Size Distribution (PSD) D90,[4]; [16],164 μm
same,Particle Size Distribution (PSD) D10,[4]; [17],11 μm
same,Particle Size Distribution (PSD) D50,[4]; [17],37 μm
same,Particle Size Distribution (PSD) D90,[4]; [17],95 μm
same,Particle Size Distribution (PSD) D10,[4]; [18],32 μm
same,Particle Size Distribution (PSD) D50,[4]; [18],199 μm
same,Particle Size Distribution (PSD) D90,[4]; [18],372 μm
same,Particle Size Distribution (PSD) D10,[4]; [19],11 μm
same,Particle Size Distribution (PSD) D50,[4]; [19],48 μm
same,Particle Size Distribution (PSD) D90,[4]; [19],113 μm
same,Particle Size Distribution (PSD) D10,[4]; [20],11 μm
same,Particle Size Distribution (PSD) D50,[4]; [20],45 μm
same,Particle Size Distribution (PSD) D90,[4]; [20],121 μm
same,D10,[4]; starting material as received,1.99 μm
same,D50,[4]; starting material as received,3.33 μm
same,D90,[4]; starting material as received,5.35 μm
same,purity after slurry (potential degradation),[5],99.9%
same,solubility,physchem [6],56.7 mg/mL
same,solubility,physchem [7],> 10 mg/mL
"(S)-12-fluoro-4-(2-methylpyridin-3-yl)-7a,8,13,14-tetrahydro-7H-[1,2,4]triazolo[4′,3′:1,6]pyrido[3,2-b]benzofuro[4,3-fg][1,4]oxazonine [Benzenesulfonic acid (1)]",XRPD Form humidity,[8]; slurry solvent EtOAc,Am
same,XRPD Form humidity,[8]; slurry solvent EtOH,Am
"(S)-12-fluoro-4-(2-methylpyridin-3-yl)-7a,8,13,14-tetrahydro-7H-[1,2,4]triazolo[4′,3′:1,6]pyrido[3,2-b]benzofuro[4,3-fg][1,4]oxazonine [Form 5-A]",DVS reversable total mass change,[1],about 3.1 wt. %
"(S)-12-fluoro-4-(2-methylpyridin-3-yl)-7a,8,13,14-tetrahydro-7H-[1,2,4]triazolo[4′,3′:1,6]pyrido[3,2-b]benzofuro[4,3-fg][1,4]oxazonine [Form 7-A]",stability of salt in water slurry,[9],disproportionated
"(S)-12-fluoro-4-(2-methylpyridin-3-yl)-7a,8,13,14-tetrahydro-7H-[1,2,4]triazolo[4′,3′:1,6]pyrido[3,2-b]benzofuro[4,3-fg][1,4]oxazonine [Form 8-B]",DVS reversable total mass change,[1],about 0.82 wt. %
"(S)-12-fluoro-4-(2-methylpyridin-3-yl)-7a,8,13,14-tetrahydro-7H-[1,2,4]triazolo[4′,3′:1,6]pyrido[3,2-b]benzofuro[4,3-fg][1,4]oxazonine [Form 10-A]",DVS reversable total mass change,[1],about 1.4 wt. %
"(S)-12-fluoro-4-(2-methylpyridin-3-yl)-7a,8,13,14-tetrahydro-7H-[1,2,4]triazolo[4′,3′:1,6]pyrido[3,2-b]benzofuro[4,3-fg][1,4]oxazonine [Form 13-A]",DVS reversable total mass change,[1],about 0.97 wt. %
